How the values were obtained:
[1] = test system: 3T3-L1 mouse pre-adipocyte cells; test: Inhibition of lipid accumulation in differentiated adipocytes (Oil Red O); assay type: cell-based; conditions: Mus musculus; at 0.5 μg/ml; 3T3-L1 (Table I)
Experimental: The inhibition of fat accumulation in the treated cells was compared with the mock treated differentiated adipocytes and percentage inhibition was measured.
One hundred thousand 3T3-L1 […] pre-adipocyte cells in Dulbecco's Modified Eagles Medium (DMEM) containing 10% Fetal Bovine Serum (FBS) were taken into each well of a 24-well plate and incubated for 48 h at 37° C. and 5% CO2. The differentiation of pre-adipocyte cells was initiated in a differentiation medium containing 10 μg/ml insulin, 1.0 μM dexamethasone, and 0.5 mM isobutylmethylxanthine (IBMX) for 48 h. After this the medium was replaced by DMEM containing 10 μg/ml insulin and incubated for 3 days. Then the differentiating cells were treated 10 μg/ml of Sphaeranthus indicus ethyl acetate extract (LI/DD-II/054A/01) and 0.5 μg/ml of 7-hydroxyfrullanolide (LI054A01) and maintained in the medium for another 3-5 days. The cells incubated with 0.1% DMSO were considered as the vehicle control. After the incubation period, cells were washed with phosphate buffered saline (PBS) and fixed with 10% buffered formalin for 1 h at room temperature. One small aliquot of cell suspension was separated for cell counting in hemocytometer chamber. Fixed cells were stained with Oil Red O solution to measure the cellular neutral lipid accumulation. Briefly, cells were washed with PBS, fixed with 10% buffered formalin and stained with Oil Red O solution (0.5 g in 100 ml isopropanol) for 10 min. After removing the staining solution, the dye retained in the cells will be eluted into isopropanol and OD measured at 550 nm. The inhibition of fat accumulation in the treated cells was compared with the mock treated differentiated adipocytes. The treated and control cells were also analyzed and compared for inhibition of lipid accumulation visually under microscope and recorded digitally in suitable image capture system. The anti-adipogenic activities shown by Sphaeranthus Indicus ethyl acetate extract (LI/DD-II/054A/01) and LIO054A01 are summarized in the following table.

CD36 = test: Immunoblot of CD36 in 3T3-L1 adipocytes; assay type: cell-based, mouse; conditions: immunoblot normalized with actin
From the text: The inventors have then evaluated the modulation of metabolic biomarkers those are primarily responsible for the adipogenesis processes, insulin resistance in type 2 diabetes, obesity, metabolic syndrome and other metabolic disorders such as Peroxisome proliferator-activated receptor gamma (PPARγ), CD36, adipocyte fatty acid binding protein 4 (FABP4 or aP2), Perilipin, and beta-3 Adrenergic Receptor (β3AR) during adipogenesis process in 3T3-L1 adipocytes by ethyl actate extract (LI/DD-II/054A/01) of Sphaeranthus indicus and 7-hydroxyfrullanolide (LI054A01) using an immunoblot assay. […] The protein extracts were evaluated by immunoblot assay, and the immuno-reactive bands were developed with West-pico chemiluminescent substrate and the blot images were captured in a Kodak Image Station, normalized with expression of actin.
Experimental protocol: Mouse pre-adipocyte 3T3-L1 cells are maintained in Dulbecco's Modified Eagles Medium (DMEM) supplemented with 2 mM glutamine, 4.5 g/L glucose and 10% fetal bovine serum. […] Protein content was measured in Bradford method by using Coomassie blue dye and cell lysates were stored in aliquots at −80° C. until further use. […]
Inhibition of protein expression of biomarker molecules adipocytes in presence or absence of Sphaeranthus indicus extract LI/DD-II/054A/01 and 7-hydroxyfrullanolide (LI054A01) was evaluated in immunoblot assay. […]

C=C1C(=O)O[C@H]2C3=C(C)CCC[C@]3(C)CC[C@@]12O [LI054A01, 7-α-hydroxy-4,11(13)-eudesmadien-12,6-olide]
inhibition at 0.5 µg/mL [1]: 68.7% | adipocyte CD36 protein level (CD36): potently ameliorated

From patent US9241964B2, “Composition from Sphaeranthus indicus and Garcinia mangostana for the control of metabolic syndrome” (LAILA NUTRACEUTICALS, priority 2009, dated 2016)
